Key:
[1] = Oral administration of Compound KC-7 co-dosed with trypsin inhibitor Compound 109 to rats (oxycodone in plasma); type: in vivo, rat; details: PO co-dosing, indicated by suppressed Cmax and/or delayed Tmax
[2] = Pharmacokinetics following PO administration to dogs (oxycodone in plasma)
[3] = Spacer leaving group cyclization rate (disappearance of compound in phosphate buffer); details: for half-life (compound disappearance, cyclization): 2.18 mM initial, 50 mM pH 7.4 phosphate buffer, 20° C.
[4] = molecular target: T1, trypsin from bovine pancreas (Bos taurus, UniProt P00760); test: In vitro trypsin-mediated prodrug cleavage; type: biochemical
T1 construct: trypsin from bovine pancreas; purchased Sigma-Aldrich T8003; host or cells: bovine pancreas (tissue-derived)
T1 sequence (P00760 24-246): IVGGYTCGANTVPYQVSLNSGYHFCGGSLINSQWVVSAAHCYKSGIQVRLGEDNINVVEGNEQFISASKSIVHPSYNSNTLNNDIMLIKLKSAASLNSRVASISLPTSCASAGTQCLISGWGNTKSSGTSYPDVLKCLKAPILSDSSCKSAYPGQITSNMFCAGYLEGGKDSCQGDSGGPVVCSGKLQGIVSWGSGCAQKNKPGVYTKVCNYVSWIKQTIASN
Procedure: (§1) The reactions were conducted at 37° C. for 24 h.
(§2) Table 3 indicates the results of exposure of Compound KC-7 to trypsin. […] Table 3 also indicates the cyclization rates of the cyclizable spacer leaving group of Compound KC-23. The results are expressed as half-life of compound disappearance. Since Compound KC-23 is a diastereomer, two peaks (A and B) were analyzed; the peak area of peak B was greater than that of peak A.

trypsin = molecular target: T2, trypsin (Bos taurus, UniProt P00760); test: In vitro trypsin-mediated prodrug cleavage; type: biochemical, bovine; details: bovine, trypsin from bovine pancreas; 0.761 mM prodrug, Tris pH 8, 37° C.; adjusted to 4815 BAEE U/mL trypsin
T2 construct: trypsin from bovine pancreas; purchased Sigma-Aldrich T8003; host or cells: bovine pancreas (tissue-derived)
T2 sequence (P00760 24-246): T1 sequence (P00760 24-246)
Procedure: as §1, §2

With `N=C(N)c1ccc2cc(OC(=O)c3ccc(N=C(N)N)cc3)ccc2c1` [Compound 109, 6-carbamimidoylnaphthalen-2-yl 4-(diaminomethyleneamino) benzoate] the “effect of trypsin inhibitor on oxycodone release from Compound KC-7” value [1] was “attenuate Compound KC-7's ability to release oxycodone in rats in a dose-dependent manner”.
With `COc1ccc2c3c1O[C@H]1C(OC(=O)N(C)[C@@H](CNC(=O)[C@H](CCCNC(=N)N)NC(=O)CNC(C)=O)C(=O)N(C)CC(=O)O)=CC[C@@]4(O)[C@@H](C2)N(C)CC[C@]314` [Compound KC-7, N-1-[(S)-2-(oxycodone-6-enol-carbonyl-methyl-amino)-2-carbonyl-sarcosine-ethylamine]-arginine-glycine-acetate] the “plasma PK profile of oxycodone release compared to OxyContin tablets and oxycodone” value ([2]; dogs, PO) was “resembles that of OxyContin® tablets more than that of oxycodone”, the “release of oxycodone into dog plasma compared to Compound KC-3” value ([2]; dogs, PO) was “significantly enhanced release of oxycodone into dog plasma (higher Cmax and AUC) as well as a more rapid Tmax” and the “cyclization of the spacer leaving group” value ([3]; shown by the cyclization rate of Compound KC-23) was “can cyclize”. The OC formation rate ([4]; 0.761 mM prodrug, Tris pH 8, 37° C.) was 0.339 ± 0.032 μmol/h/BAEE U, the cleavage by trypsin ([4]; in vitro) was “can be cleaved by trypsin” and the half-life at 0.761 mM (trypsin) was 0.196 ± 0.00031 h.
With “N-1-[2-(oxycodone-6-enol-carbonyl-methyl-amino)-ethylamine]-arginine-malonic acid [Compound KC-3]” the “AUC ± sd” value ([2]; oxycodone in dog plasma, AUC 0 to 24 h, PO […] (KC-7 4.88, KC-3 4.15, oxycodone 2 mg/kg), OxyContin one 20 mg tablet) was 65.6 ± 22 ng·h/mL and the “OC Cmax ± sd” value ([2]; oxycodone in dog plasma, PO […] (KC-7 4.88, KC-3 4.15, oxycodone 2 mg/kg), OxyContin one 20 mg tablet) was 10.2 ± 3.3 ng/mL.
In the case of “[(S)-1-(oxycodone-6-enol-carbonyl-methyl-amino)-1-carbonyl-sarcosine]ethylamine [KC-23, peak A]”, the “half-life (compound disappearance, cyclization)” value [3] is reported as 7.22 ± 0.03 h.
For “[(S)-1-(oxycodone-6-enol-carbonyl-methyl-amino)-1-carbonyl-sarcosine]ethylamine [KC-23, peak B]”, the “half-life (compound disappearance, cyclization)” value [3] was 5.80 ± 0.08 h.
